Series [1] can be described thus: Tolerability (test not described). In kind it is in vivo. The conditions noted are these: compared with the reference Prazosin.
For another series, the system named is Blutdruck der Ratte. Put plainly: Blood pressure lowering in the rat after i.v. administration. The format is in vivo. The note with it: i.v. 1,0 mg/kg, after 3 hours, compared with Nifedipin and Verapamil at the same dose.
A further series in a line: in vivo. The note with it: mouse, iv, Maus i.v.

Structures are written as SMILES.

Consider `CC(O)CC(=O)N1CCC(n2c(=O)[nH]c3ccccc32)CC1` (stereo not drawn) [Beispiel 1, 1-(3-Hydroxybutyryl)-4-(2-oxo-1-benzimidazolinyl)-piperidin], for which the Verträglichkeit entry in series [1] is given as “wesentlich verträglicher als die Vergleichssubstanz”.

Turning to `COC(=O)C1=C(C)NC(C)=C(C(=O)OCCCN2CCC(n3c(=O)[nH]c4ccccc43)CC2)C1c1cccc([N+](=O)[O-])c1` (stereo not drawn) [Beispiel 4, 2,6-Dimethyl-3-{3-(4-(2-oxo-1-benzimidazolinyl)-1-piperidino]-propyloxy-carbonyl}-4-(3-nitro-phenyl)-5-methoxycarbonyl-1,4-dihydropyridin], in the series on Blutdruck der Ratte, the “senkt den Blutdruck der Ratte” value is “noch stärker als Nifedipin oder Verapamil”. Further, in the series “in vivo”, the LD50 (usually the dose at which mortality reaches 50%) turned out to be 128 mg/kg.
